Results taken from ChEMBL document CHEMBL1201862, “PubChem BioAssay data set” (2004).
Calls of active or inactive are those of the source.

Columns and labels:
Cytochrome P450 1A2 = molecular target: T1, Cytochrome P450 1A2 (Homo sapiens, UniProt P05177);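 note: PubChem cytochrome P450 panel assay, CYP1A2 panel member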
T1 sequence (P05177 whole entry): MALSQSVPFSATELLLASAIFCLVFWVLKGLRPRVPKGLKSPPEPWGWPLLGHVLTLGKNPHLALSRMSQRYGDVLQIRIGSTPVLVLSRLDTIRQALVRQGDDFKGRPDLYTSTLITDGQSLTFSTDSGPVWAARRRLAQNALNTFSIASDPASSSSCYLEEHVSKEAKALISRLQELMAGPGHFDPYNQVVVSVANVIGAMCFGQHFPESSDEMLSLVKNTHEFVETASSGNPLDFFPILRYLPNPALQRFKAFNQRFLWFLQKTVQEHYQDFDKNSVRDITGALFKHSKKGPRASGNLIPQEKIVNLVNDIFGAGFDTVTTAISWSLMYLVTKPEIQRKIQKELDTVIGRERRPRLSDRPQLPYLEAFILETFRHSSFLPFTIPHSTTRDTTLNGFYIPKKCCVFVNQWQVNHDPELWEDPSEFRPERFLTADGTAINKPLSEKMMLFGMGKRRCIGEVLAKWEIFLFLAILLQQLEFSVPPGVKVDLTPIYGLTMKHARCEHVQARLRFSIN

Cytochrome P450 2C19 = Cytochrome P450 2C19 (Homo sapiens, UniProt P33261); assay: Cytochrome panel assay with activity outcomes. Panel member name: p450-cyp2c19 Compounds with AC50 equal or less than 10 uM are considered active; type: functional
Sequence of Cytochrome P450 2C19 (P33261 whole entry): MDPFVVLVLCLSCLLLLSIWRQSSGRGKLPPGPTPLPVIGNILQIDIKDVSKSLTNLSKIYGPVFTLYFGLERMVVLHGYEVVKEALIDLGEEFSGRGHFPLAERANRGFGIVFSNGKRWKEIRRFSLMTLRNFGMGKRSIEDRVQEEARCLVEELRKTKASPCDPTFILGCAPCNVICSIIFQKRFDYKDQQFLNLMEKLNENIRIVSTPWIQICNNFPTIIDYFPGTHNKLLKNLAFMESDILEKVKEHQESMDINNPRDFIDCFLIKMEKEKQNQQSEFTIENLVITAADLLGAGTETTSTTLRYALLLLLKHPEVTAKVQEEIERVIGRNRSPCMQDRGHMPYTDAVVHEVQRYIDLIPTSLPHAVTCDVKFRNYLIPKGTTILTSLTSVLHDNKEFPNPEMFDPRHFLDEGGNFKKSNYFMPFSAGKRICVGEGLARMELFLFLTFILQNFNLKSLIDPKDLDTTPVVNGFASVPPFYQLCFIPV

[1] = inhibitors of firefly luciferase expression or activity, dose response, H4 neuroglioma cells, luminescence (AID 1990); type: functional, cell-based
[2] = inhibitors of SNCA 5'UTR-driven reporter translation, confirmation, H4 neuroglioma cells, luminescence (AID 1988); type: functional, cell-based
[3] = Luminescence Cell-Based Dose Response HTS to Identify Inhibitors of 5'UTR Stem-Loop Driven Prion Protein mRNA Translation in H4 Neuroglioblastoma Cells. [Related pubchem assays: 1827 (Project Summary), 1813 (Primary HTS)]; type: functional
[4] = cytotoxicity toward NIH3T3 fibroblasts, dose response, counter-screen, cell-based, ATP luminescence, mouse fibroblasts (AID 2010); type: functional;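 note: cells exposed to compound for about 90 hours before reading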
[5] = inhibitors of intracellular T. cruzi replication, confirmation, NIH3T3 host cells, beta-gal luminescence (AID 2044); type: functional, cell-based;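 note: intracellular parasites grown in NIH/3T3 mouse fibroblasts as host cells; luminescent beta-galactosidase reporter signal from transgenic T. cruzi replicating inside host cells; inhibitors lower the luminescence signal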
Streptococcus = assay: Group A Streptococcus viability loss, dose response, counter-screen for streptokinase expression inhibitor project, luminescence, BacTiterGlo (AID 1915); type: functional, organism-based;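 note: potency for reduction of bacterial viability or growth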
[6] = test system: Streptococcus sp. 'group A'; assay: growth inhibition of control SK(-) GAS strain, dose response, counter-screen for streptokinase expression inhibitor project, luminescence, kanamycin, BacTiterGlo, confirmation (AID 1900); type: functional, organism-based
Cytochrome P450 2D6 = Cytochrome P450 2D6 (Homo sapiens, UniProt P10635);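 note: CYP2D6 member of a cytochrome P450 panel assay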
Sequence of Cytochrome P450 2D6 (P10635 whole entry): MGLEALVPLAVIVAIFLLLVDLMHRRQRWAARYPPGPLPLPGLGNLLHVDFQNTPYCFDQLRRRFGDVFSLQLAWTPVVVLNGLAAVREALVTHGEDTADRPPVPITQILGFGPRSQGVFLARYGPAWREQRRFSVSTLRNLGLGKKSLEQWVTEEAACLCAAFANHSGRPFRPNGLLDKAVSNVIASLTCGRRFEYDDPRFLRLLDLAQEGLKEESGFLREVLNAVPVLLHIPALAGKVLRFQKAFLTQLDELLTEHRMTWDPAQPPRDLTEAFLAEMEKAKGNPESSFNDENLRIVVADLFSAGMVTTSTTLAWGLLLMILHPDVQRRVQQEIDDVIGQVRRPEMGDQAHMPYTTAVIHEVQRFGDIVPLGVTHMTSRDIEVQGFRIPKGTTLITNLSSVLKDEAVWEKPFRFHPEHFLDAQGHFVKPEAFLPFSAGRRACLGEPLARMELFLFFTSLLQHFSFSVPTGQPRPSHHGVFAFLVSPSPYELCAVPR

COc1ccc(C)cc1NC(=O)CSc1nnc(-c2ccc(OC)c(OC)c2)n1N
AC50 (Cytochrome P450 1A2): 11.2 µM (inconclusive) | AC50 (Cytochrome P450 2C19; read-out: AC50): 28.2 µM (inconclusive)

COc1cc(O)nc(SCc2c(F)c(F)c(F)c(F)c2F)n1
EC50 [1]: > 120 µM (not active) | EC50 [2]: 66.4 µM (active) | EC50 [3]: 13.9 µM (active)

Cn1c(=O)c2nc(CSCc3ccccc3)[nH]c2n(C)c1=O
AC50 (Cytochrome P450 2C19): inconclusive

Cc1nc(SCC(=O)Nc2c(C)nn(C)c2C)c2cnn(-c3ccccc3)c2n1
AC50 (Cytochrome P450 2C19; read-out: AC50): 28.2 µM (inconclusive)

COc1ccc(-c2nnc(CSc3nnc(-c4ccncc4)n3C3CCCCC3)o2)cc1OC
EC50 [1]: 16.3 µM (active) | EC50 [2]: 39.4 µM (active) | EC50 [3]: > 120 µM (not active)

Cc1sc2ncn(CC(=O)NCCCC(=O)N3CCN(c4ncccn4)CC3)c(=O)c2c1C
AC50 (Cytochrome P450 2C19; read-out: AC50): 25.1 µM (inconclusive)

CC(C)n1c2ccccc2c2cc([N+](=O)[O-])ccc21
EC50 [1]: 14.8 µM (active) | EC50 [2]: 34.3 µM (active) | EC50 [3]: > 120 µM (not active)

COc1ccc(CNc2ncnc3ccc(-c4cccnc4)cc23)c(OC)c1
AC50 (Cytochrome P450 2C19; read-out: AC50): 31.6 µM (inconclusive)

CC(C)CN(C(=O)COC(=O)c1c(Cl)ccc(Cl)c1Cl)C1CCS(=O)(=O)C1 (stereo unspecified)
EC50 [1]: > 120 µM (not active) | EC50 [2]: > 120 µM (not active) | EC50 [3]: > 120 µM (not active)

O=C(CSc1ncnc2c1nnn2Cc1ccc(F)cc1)NC1CCCCC1
EC50 [4]: > 60 µM (not active) | EC50 [5]: 4.08 µM (active)

O=C(NNC(=S)NC(=O)c1cccc([N+](=O)[O-])c1)c1ccc(Br)cc1
EC50 (Streptococcus): 6.56 µM (active) | EC50 [6]: 1.14 µM (active)

N=c1c2c(-c3ccccc3)c(-c3ccccc3)n(Cc3ccco3)c2ncn1CCCO
EC50 [4]: 11.3 µM (active) | EC50 [5]: 1.33 µM (active)

CC(C)c1cc(CN(C)C)c(O)c(C(C)(C)C)c1
AC50 (Cytochrome P450 2D6): 6.31 µM (inconclusive)

Cc1cc(C)c(S(=O)(=O)Nc2ccccc2C(F)(F)F)c(C)c1
AC50 (Cytochrome P450 1A2): 31.6 µM (inconclusive)

CN(Cc1ccco1)c1ccnc(-c2ccccc2C(F)(F)F)n1
AC50 (Cytochrome P450 2D6): 25.1 µM (inconclusive)

N#CC(C#N)=CNCCN1CCN(C=C(C#N)C#N)CC1
AC50 (Cytochrome P450 2C19): inconclusive

O=C(c1c[nH]c(C(=O)N2CCN(c3ccccc3F)CC2)c1)c1cccc(Cl)c1Cl
EC50 [4]: 2.1 µM (active) | EC50 [5]: 2.69 µM (active)

COc1ccc(NC(=O)CC2C(=O)N(CCc3ccccc3)C(=S)N2Cc2cccnc2)cc1 (stereo unspecified)
EC50 [4]: > 60 µM (inconclusive) | EC50 [5]: 2.03 µM (active)

O=C(Nc1ccc([N+](=O)[O-])cc1)C(Cc1ccccc1)N1C(=O)c2cccc3cccc(c23)C1=O (stereo unspecified)
EC50 [1]: > 120 µM (not active) | EC50 [2]: > 120 µM (not active) | EC50 [3]: > 120 µM (not active)

Cc1ccccc1Cn1cnc2c(cnn2C(C)(C)C)c1=O
AC50 (Cytochrome P450 2D6): 35.5 µM (inconclusive)

CCOC(=O)c1[nH]c(Cc2[nH]c(C(=O)OCC)c(C)c2CCC(=O)OC)c(CCC(=O)OC)c1C
EC50 [1]: > 120 µM (not active) | EC50 [2]: 12.1 µM (active) | EC50 [3]: 21.2 µM (active)

CCOc1ccccc1NC(=O)c1cc(-c2ccncc2)nc2c(Cl)cccc12
EC50 [4]: 21.2 µM (active) | EC50 [5]: 1.97 µM (active)

O=C(CN1C2=NCCCN2c2ccccc21)c1ccc([N+](=O)[O-])cc1
EC50 [4]: > 60 µM (not active) | EC50 [5]: 0.436 µM (active)

CN(C)c1ccc(-c2ccc3ncnc(N(C)Cc4ccco4)c3c2)cc1
AC50 (Cytochrome P450 2D6): 25.1 µM (inconclusive)

CCC(=O)Nc1nc2ccc([N+](=O)[O-])cc2s1
EC50 [4]: > 60 µM (not active) | EC50 [5]: 0.241 µM (active)

CCCCSc1nnc(-c2ccc(C)cc2)n1C
AC50 (Cytochrome P450 1A2): 28.2 µM (inconclusive)

C[C@H](N)c1cccc(Cl)c1Cl
AC50 (Cytochrome P450 2D6): 31.6 µM (inconclusive)

Oc1c[n+](CCCC[n+]2cc(O)on2)no1
AC50 (Cytochrome P450 2C19): inconclusive

O=C(NC1CCCCCC1)c1cccs1
AC50 (Cytochrome P450 2C19; read-out: AC50): 3.98 µM (inconclusive) | AC50 (Cytochrome P450 2D6): 12.6 µM (inconclusive)

O=C(NCC1CCCO1)/C(=C\c1ccco1)NC(=O)c1ccccc1 (stereo unspecified)
AC50 (Cytochrome P450 1A2): 14.1 µM (inconclusive)

CSc1cccc(NC(=S)N(Cc2ccc(C)cc2)Cc2ccccn2)c1
EC50 [4]: > 60 µM (not active) | EC50 [5]: 0.483 µM (active)

COc1ccccc1C(=O)C1CCCN(Cc2ccc(Oc3ncccn3)cc2)C1 (stereo unspecified)
EC50 [4]: > 60 µM (not active) | EC50 [5]: 0.178 µM (active)

Cc1ccc(-n2ncc3c2ncn2nc(-c4ccco4)nc32)c(C)c1
AC50 (Cytochrome P450 2C19; read-out: AC50): 17.8 µM (inconclusive)

CCOC(=O)c1c(NC(=O)CN2CCCCC2)sc(CN(C)C)c1-c1ccccc1
EC50 [4]: > 30 µM (not active) | EC50 [5]: 1.11 µM (active)

O=C(NC1CCN(Cc2ccccc2)CC1)c1cc(Br)c(Br)[nH]1
EC50 [4]: > 60 µM (not active) | EC50 [1]: > 120 µM (not active) | EC50 [2]: > 120 µM (not active) | EC50 [3]: > 120 µM (not active) | EC50 [5]: 0.539 µM (active)

Cc1cc(C)c[n+](CC(=O)c2cc3ccccc3oc2=O)c1
AC50 (Cytochrome P450 1A2): 22.4 µM (inconclusive) | AC50 (Cytochrome P450 2D6): 11.2 µM (inconclusive)

OCC1(CCCc2ccccc2)CCN(Cc2cnc(N3CCOCC3)s2)CC1
EC50 [4]: > 60 µM (not active) | EC50 [5]: 1.2 µM (active)

CN(C)C(=O)c1ccc(-c2nc(N(C)Cc3ccco3)c3ccccc3n2)cc1
AC50 (Cytochrome P450 2C19; read-out: AC50): 31.6 µM (inconclusive) | AC50 (Cytochrome P450 2D6): 39.8 µM (inconclusive)

CO[C@@H]1COC(=O)[C@H]2CCCN2C(=O)[C@@H](C)COC(=O)CCC[C@H]1C
AC50 (Cytochrome P450 2C19): inconclusive

Cc1cc(C)c(S(=O)(=O)c2ccccc2C)c(Cl)n1
EC50 [4]: > 60 µM (not active) | EC50 [5]: 2.05 µM (active)

O=c1cnc2cnc(OCc3ccccc3)nc2n1Cc1ccc(F)cc1
AC50 (Cytochrome P450 2C19; read-out: AC50): 25.1 µM (inconclusive) | AC50 (Cytochrome P450 2D6): 39.8 µM (inconclusive)

CN(C(=O)CSc1nc(O)c(C#N)c(-c2ccc(C(C)(C)C)cc2)n1)C1CCCCC1
EC50 (Streptococcus): 20.3 µM (active)

COc1cccc(Cn2c(=O)c(C)nc3cnc(OCc4ccccc4)nc32)c1
AC50 (Cytochrome P450 2D6): 20 µM (inconclusive)

O=C(Nc1nc2c(F)cc(F)cc2s1)C1CC1
EC50 [4]: > 60 µM (not active) | EC50 [5]: 0.305 µM (active)

CCCCN(C)CCCNC(=O)c1ccc(N2CCCC2=O)cc1
AC50 (Cytochrome P450 1A2): 0.126 µM (inconclusive)

Cc1oc(-c2ccccc2F)nc1CS(=O)(=O)CC(=O)NCCCN(C)C1CCCCC1
AC50 (Cytochrome P450 2D6): 15.8 µM (inconclusive)

O=C(NC(Cc1c[nH]c2ccccc12)c1nnc2n1CCCCC2)c1ccccc1 (stereo unspecified)
AC50 (Cytochrome P450 2C19; read-out: AC50): 17.8 µM (inconclusive)

CCc1nnc(NC(=O)CCC(=O)NCc2ccccc2OC)s1
AC50 (Cytochrome P450 2D6): 17.8 µM (inconclusive)

OC[C@@H]1O[C@H](n2cnc3c(/C=C(\O)c4ccccc4)ncnc32)[C@H](O)[C@@H]1O
AC50 (Cytochrome P450 1A2): 0.501 µM (inconclusive)

O=C(Nc1ccccc1)N(Cc1ccccc1)CC(O)C(F)(F)F (stereo unspecified)
AC50 (Cytochrome P450 1A2): 17.8 µM (inconclusive)

COc1ccc(CC(=O)NCCN2CCCC2)cc1
AC50 (Cytochrome P450 2D6): 28.2 µM (inconclusive)

CCN1CCN(c2nc(-c3ccncc3)nc3ccccc23)CC1
EC50 [4]: > 60 µM (not active) | EC50 [5]: 1.23 µM (active)

O=C(N/N=C/c1cc2c(cc1Br)OCO2)c1c[nH]c2ccccc12
EC50 [4]: > 60 µM (inconclusive) | EC50 [5]: 2.52 µM (active)

COc1ccccc1NS(=O)(=O)c1cccc(C(=O)N/N=C/c2cn(-c3ccccc3)nc2-c2ccccc2)c1
EC50 [1]: > 120 µM (not active) | EC50 [2]: > 120 µM (not active) | EC50 [3]: > 120 µM (not active)

O=C(O)COc1ccccc1/C=N/NC(=O)c1cc2ccccc2cc1O
EC50 [1]: > 120 µM (not active) | EC50 [2]: 18.7 µM (active) | EC50 [3]: > 120 µM (not active)

O=C(Cn1cc(C(F)(F)F)ccc1=O)N/N=C/c1cccc(Cl)c1Cl
EC50 [1]: > 120 µM (not active) | EC50 [2]: > 120 µM (not active) | EC50 [3]: > 120 µM (not active)

NC(=O)c1cccc(N)c1 [3-AMINOBENZAMIDE]
AC50 (Cytochrome P450 1A2): 39.8 µM (inconclusive) | AC50 (Cytochrome P450 2D6): 20 µM (inconclusive)
